The assay in a line: In vitro whitening test on coffee-stained bovine teeth (ΔW*). As to conditions: Example 6, MPS added to 2% hydrogen peroxide mouthwash. As for the experimental part:
The bovine teeth have initial L values of 57-65. The teeth are submerged in deionized water, then removed and soaked for 2 minutes in 20 mL of the test solution. The teeth are then rinsed three times with deionized water. Each such treatment cycle is repeated fourteen times, and after every two cycles values for L*, a* and b* are measured. These figures are used to calculate a whiteness score, W*, which is a measure of overall color change relative to pure white:
ΔW*=W*(treated)−W*(baseline)
The resulting instant whitening mouthwash is compared to a comparative 2% hydrogen peroxide whitening mouthwash composition using the procedure described in Example 5.
The comparative HP mouthwash is compared to the MPS mouthwash and the MPS/HP mouthwash in side-by-side experiments.

One compound from US20170172880A1, “Fast Dissolving Peroxymonosulfate Composition” (Colgate-Palmolive Company, priority 2015, published 2017) can be followed below.

`O=S(=O)([O-])O[O-].[K+].[K+]` [MPS, potassium peroxymonosulfate]: the “whitening effect when added to a hydrogen peroxide mouthwash” value was “significant and unexpected additive whitening effect”.
